Assay results reported in patent publication US8143254B2, “Methods for modulating ion channels” (Cornell Research Foundation, Inc., priority 2005, dated 2012).

Tested on: Kv3.4
Assay: TEVC of X. laevis oocytes expressing Kv3.4
Assay type: cell-based
Conditions: for mean inhibition at 0 mV relative to +50 mV: Kv3.4, voltage dependence of block
From the text: Kv2.1 mutants were constructed using the QuickChange Multi Site-Directed Mutagenesis Kit (Stratagene, La Jolla, Calif.). […] For oocyte expression, Kv3.4 was in pBF1, Kv4.2 was in pRAT. cRNA transcripts were produced from SacII-linearized (Kv2.1), Mlullinearized (Kv3.4) and Not1-linearized (Kv4.2) DNA templates using the T3 (Kv2.1), SP6 (Kv3.4) and T7 (Kv4.2) mMessage mMachine kits (Ambion, Austin, Tex.). cRNA was quantified by spectrophotometry and its size integrity verified by gel electophoresis. Defolliculated stage V and VI Xenopus laevis oocytes (purchased from Nasco, Grand Island, N.Y.) were injected with 5 ng of cRNA encoding Kv2.1, Kv3.4 or Kv4.2. Chinese Hamster Ovary (CHO) cells were transfected with 0.25 μg Kv2.1 cDNA, 2 μg blank plasmid and 2 μg Green fluorescent Protein in pBOB using Supetfect transfection reagent (Qiagen) 24 hours before whole-cell voltage clamp studies.
Oocytes were bathed in a small-volume Warner oocyte bath and viewed with a Fisher dissection microscope. Bath solution for whole-cell oocyte recordings was (in mM): 96 NaCl, 4 KCl, 0.7 MgCl2, 1 CaCl2, 10 HEPES (pH 7.4); whole-cell oocyte TEVC pipettes were of 0.2-2 M resistance when filled with 3 M KCl. Experiments were performed 24-48 hours after cRNA injection. For assessment of current-voltage relationships in the absence or presence of dabco derivatives, oocytes were held at −80 mV, stepped for 2 seconds at voltages between −80 mV and +60 mV in 20 mV steps (Kv2.1) or between −80 and +50 mV in 10 mV steps (Kv3.4), then held for 500 ms at −40 mV before returning to the holding potential. For assessment of block during wash-in of dabco derivatives at a single voltage, oocytes were held at −80 mV, and repetitively stepped to 0 mV for 2 s with an interpulse interval of 10 s or 60 s as indicated. A range of concentrations of dabco or dabco derivatives were washed in via the bath solution during repetitive single-voltage pulses (after an initial period of 5 pulses with control solution to ensure current stabilization) until equilibrium block was achieved, to establish dose-responses. […] Washout was performed after the highest concentration of blocker was washed in. In cases where washout was achieved, only those recordings in which current returned to within 10% of original current level were used for construction of dose-response curves. […] As controls for this protection analysis, JC638.2a or MTSET were washed in alone until equilibrium block, then washed out.
Data analysis: Current-voltage relationships were obtained by measuring peak current during depolarizing pulses. Inhibition constants for DABCO blockers were calculated after generating a dose response curve by fitting with a logistic dose-response function y=A2+[A1−A2/1+(x/x0)^p], where A1 is the maximum response plateau, A2 is the minimum response plateau, x is drug concentrator, x0 is the IC50, and p the Hill slope. Data analysis was performed using […] 9 (Axon Instruments, Foster City, Calif.) and tabulated in Excel 5.0. Graphs were generated using Origin 6.1. Data are expressed as mean±SEM, with n specifying the number of independent experiments. Statistical significance was assessed by one-way ANOVA with p<0.05 being indicative of significance.

## CCCCCCCCCCCC[N+]12CCN(CC1)CC2 [JE188, 1-aza-4-azonia-4-dodecylbicyclo[2.2.2]octane]
50 μM
  inhibition of Kv3.4: significantly inhibited
250 μM
  inhibition of Kv3.4: almost complete inhibition
  mean inhibition at 0 mV relative to +50 mV: 2 fold

## CCCCCCCCCCCCCCCC[N+]12CCN(CC1)CC2 [TA279, 1-aza-4-azonia-4-hexadecylbicyclo[2.2.2]octane]
1 μM
  inhibition of Kv3.4: inhibiting
5 mM
  inhibition of Kv3.4: almost complete inhibition
  mean inhibition at 0 mV relative to +50 mV: 1.5 fold
Externally applied
  sensitivity of Kv3.4 channels to compound relative to externally-applied TEA: 500 fold
